# Molecular target: T1, purified STEP46 enzyme (Homo sapiens, UniProt P54829)
# T1 sequence (P54829 197-565 limits assumed): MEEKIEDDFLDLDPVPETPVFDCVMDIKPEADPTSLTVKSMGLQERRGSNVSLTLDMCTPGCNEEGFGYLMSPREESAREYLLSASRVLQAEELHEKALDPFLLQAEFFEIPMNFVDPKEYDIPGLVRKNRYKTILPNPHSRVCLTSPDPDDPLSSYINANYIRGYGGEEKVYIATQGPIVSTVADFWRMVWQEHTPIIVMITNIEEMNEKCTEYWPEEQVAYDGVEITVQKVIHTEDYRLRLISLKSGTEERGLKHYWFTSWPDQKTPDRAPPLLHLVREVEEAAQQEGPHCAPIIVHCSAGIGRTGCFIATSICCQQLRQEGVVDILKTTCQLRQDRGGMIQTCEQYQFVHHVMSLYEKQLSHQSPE
# Assay: STEP46 biochemical assay (DiFMUP fluorescence phosphatase assay)
# Settings: DiFMUP 10 μM, read-out: STEP IC50
# Outline: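 Purified human STEP46 preincubated 30 min at room temperature with compounds in Hepes/DTT/Brij35 buffer (2% DMSO final), then reacted with 10 μM DiFMUP for 90 min at 27°C; fluorescence read at 360/460 nm. IC50 from four-parameter fit; activation shown as negative % inhibition at 25, 50, 100 uM.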
row,Compound,IC50 [µM]
1,CNc1nc(-c2cccnc2)nc2ccc(-c3nnc(C)s3)cc12 [Compound 472],> 10
2,CNc1nc(-c2cccnc2)nc2ccc(-c3ccc(F)cc3C)cc12 [Compound 247],1 to 10
3,CNc1nc(-c2cccnc2)nc2cc(F)c(-c3cccc(F)c3)cc12 [Compound 584],1 to 10
4,CNc1nc(-c2cccnc2)nc2ccc(-c3ccc(F)c4ccoc34)cc12 [Compound 233],< 1
5,CNc1nc(-c2cnccn2)nc2cc(-c3cc(F)ccc3F)ccc12 [Compound 396],1 to 10
6,Cc1noc(C)c1-c1nc(-c2cccnc2)nc2ccc(-c3ccc(F)cc3F)cc12 [Compound 422],1 to 10
7,Clc1ccc2c(c1)CCN2c1nc(-c2cccnc2)nc2cc(-c3cccnc3)ccc12 [Compound 99],< 1
8,CNc1nc(-c2cccnc2)nc2cc(OC(F)(F)F)c(-c3cccc(F)c3)cc12 [Compound 209],1 to 10
9,CNc1nc(-c2cccnc2)nc2c(F)c(-c3ccc(OC)c(F)c3)ccc12 [Compound 544],< 1
10,CNc1nc(-c2cccnc2)nc2c(F)c(-c3ccc(C)cc3)ccc12 [Compound 526],1 to 10
11,CNc1nc(-c2cccnc2)nc2c(F)cc(-c3cccc(F)c3)cc12 [Compound 563],1 to 10
12,O=[N+]([O-])c1cccc(-c2ccc3nc(-c4cccnc4)nc(N4CCc5cc(Cl)ccc54)c3c2)c1 [Compound 82],1 to 10
13,Cc1c(-c2cccnc2)ccc2c(N3CCc4cc(Cl)ccc43)nc(-c3cccnc3)nc12 [Compound 114],< 1
14,CNc1nc(-c2cncc(C)c2)nc2cc(-c3cc(F)ccc3F)ccc12 [Compound 160],1 to 10
15,Cc1ccc2c(c1)CCN2c1nc(-c2cccnc2)nc2ccc(-c3cc(F)cc(F)c3)cc12 [Compound 80],> 10
16,CNc1nc(-c2cccnc2)nc2c(F)c(-c3ccccc3F)ccc12 [Compound 513],1 to 10
17,CNc1nc(-c2cccnc2)nc2cc(-c3cc(OC)ccc3F)ccc12 [Compound 219],1 to 10
18,CNc1nc(-c2cccnc2)nc2ccc(-c3ccc(OC)cc3C(F)(F)F)cc12 [Compound 249],> 10
19,CNc1nc(-c2cccnc2)nc2cc(-c3ccco3)ccc12 [Compound 317],> 10
20,Fc1ccc(-c2ccc3nc(-c4cccnc4)nc(N4CCc5ccccc54)c3c2)cc1 [Compound 88],1 to 10
21,COc1ccc2nc(-c3cccnc3)nc(N3CCc4ccc(Cl)cc43)c2c1 [Compound 4],1 to 10
22,Cc1c(-c2cccc(F)c2)ccc2c(N3CCc4cc(Cl)ccc43)nc(-c3cccnc3)nc12 [Compound 117],> 10
23,CNc1nc(-c2cccnc2)nc2ccc(-c3cccc(F)c3F)c(F)c12 [Compound 221],1 to 10
24,CNc1nc(-c2cccnc2)nc2cc(-c3cccc(F)c3C)ccc12 [Compound 324],1 to 10
25,CNc1nc(-c2cccnc2)nc2c(-c3cc(F)cc(F)c3)cccc12 [Compound 277],> 10
26,Fc1ccc(-c2ccc3nc(-c4cccnc4)nc(Nc4cncc(F)c4)c3c2)cc1 [Compound 440],1 to 10
27,CNc1nc(-c2cnccn2)nc2ccc(-c3ccc(F)c(F)c3)c(F)c12 [Compound 977],1 to 10

row,Compound,IC50 [µM]
1,CNc1nc(-c2cccnc2)nc2ccc(-c3cccc(C(=O)Nc4nncs4)c3)cc12 [Compound 447],< 1
2,Fc1ccc(-c2ccc3nc(-c4cccnc4)nc(NCc4ccccn4)c3c2)cc1 [Compound 374],1 to 10
3,CNc1nc(-c2cccnc2)nc2ccc(-c3cccc(C)c3Cl)cc12 [Compound 268],> 10
4,CCOc1ccc2nc(-c3cccnc3)nc(Nc3cc(C)c(F)cn3)c2c1 [Compound 67],1 to 10
5,CNc1nc(-c2cccnc2)nc2c(F)c(-c3cc(F)c(F)cc3F)ccc12 [Compound 522],1 to 10
6,CNc1nc(-c2cccnc2)nc2c(F)c(-c3cccc4sccc34)ccc12 [Compound 538],1 to 10
7,Clc1ccc2c(c1)N(c1nc(-c3cccnc3)nc3ccc(Br)cc13)CC2 [Compound 23],1 to 10
8,Cc1c(-c2cncnc2)ccc2c(N3CCc4cc(Cl)ccc43)nc(-c3cccnc3)nc12 [Compound 115],< 1
9,Fc1ccc(-c2ccc3nc(-c4cccnc4)nc(Nc4cc(F)ccn4)c3c2)cc1 [Compound 442],1 to 10
10,CNc1nc(-c2cccnc2C)nc2ccc(-c3cccc(F)c3)cc12 [Compound 220],1 to 10
11,CN(C)c1nc(-c2cccnc2)nc2ccc(-c3ccc(C4CC4)cc3)cc12 [Compound 308],> 10
12,CNc1nc(-c2cccnc2)nc2c(F)c(-c3ccc(F)c(F)c3F)ccc12 [Compound 521],1 to 10
13,CC(Nc1nc(-c2cccnc2)nc2ccc(-c3ccc(F)cc3F)cc12)c1ccccc1 (stereo not shown) [Compound 607],1 to 10
14,CCOc1ccc2nc(-c3cccnc3)nc(Nc3cncc(C)c3)c2c1 [Compound 65],1 to 10
15,Fc1cc(F)cc(-c2ccc3nc(-c4ccnnc4)nc(NCc4ccccn4)c3c2)c1 [Compound 328],1 to 10
16,CCOc1ccc(F)c(-c2ccc3nc(-c4cccnc4)nc(NC)c3c2)c1 [Compound 201],1 to 10
17,CNc1nc(-c2cccnc2)nc2ccc(-c3ccc(F)cc3F)c(F)c12 [Compound 222],1 to 10
18,CNc1nc(-c2cccnc2)nc2cc(OC(F)(F)F)c(-c3cccc(F)c3F)cc12 [Compound 404],1 to 10
19,Fc1ccc(F)c(-c2ccc3nc(-c4cccnc4)nc(NCCc4ccccn4)c3c2)c1 [Compound 339],1 to 10
20,CNc1nc(-c2cccnc2)nc2cc(-c3c(F)ccc(F)c3F)ccc12 [Compound 453],1 to 10
21,CC(Nc1nc(-c2cccnc2)nc2cc(-c3cc(F)cc(F)c3)ccc12)c1ccccn1 (stereo not shown) [Compound 370],1 to 10
22,CNc1nc(-c2cccnc2)nc2ccc(-c3cccc4oc(=O)[nH]c34)cc12 [Compound 476],< 1
23,CNc1nc(-c2cccnc2)nc2c(F)c(-c3cc(F)cc(F)c3)ccc12 [Compound 516],< 1
24,CNc1nc(-c2cccnc2)nc2c(F)c(-c3ccc(F)cc3)ccc12 [Compound 505],1 to 10
25,CNc1nc(-c2cccnc2)nc2c(Cl)cc(-c3ccc(F)cc3F)cc12 [Compound 244],1 to 10
26,CC(Nc1nc(-c2cccnc2)nc2ccc(-c3ccccc3F)cc12)c1ccccc1 (stereo not shown) [Compound 603],1 to 10
27,Cc1c(-c2ccc(C#N)cc2)ccc2c(N(C)C)nc(-c3cccnc3)nc12 [Compound 291],1 to 10

row,Compound,IC50 [µM]
1,CNc1nc(-c2cccnc2)nc2cc(-c3cc(F)nc(F)c3)ccc12 [Compound 284],< 1
2,Fc1ccc(-c2ccc3nc(-c4cccnc4)nc(Nc4ccc(F)cn4)c3c2)cc1 [Compound 436],1 to 10
3,Cc1ccc2c(c1)N(c1nc(-c3cccnc3)nc3ccc(Br)cc13)CC2 [Compound 20],1 to 10
4,CNc1nc(-c2cccnc2)nc2c(OC)cc(-c3ccc(F)cc3)cc12 [Compound 259],> 10
5,CNc1nc(-c2cccnc2)nc2ccc(-c3cnc(-c4ccccc4)s3)cc12 [Compound 464],> 10
6,c1ccc(CNc2nc(-c3cccnc3)nc3ccc(-c4ccoc4)cc23)nc1 [Compound 602],1 to 10
7,CNc1nc(-c2cccnc2)nc2ccc(-c3cc(F)nc(F)c3)cc12 [Compound 283],1 to 10
8,CNc1nc(-c2cccnc2)nc2cc(-c3ccoc3C)ccc12 [Compound 275],> 10
9,CNc1nc(-c2cccnc2)nc2c(OC)cc(-c3cccc(F)c3F)cc12 [Compound 194],1 to 10
10,CNc1nc(-c2ccc(F)nc2)nc2cc(-c3cc(F)ccc3F)ccc12 [Compound 156],1 to 10
11,CNc1nc(-c2cccnc2)nc2cc(-c3ccc(F)cc3OC)ccc12 [Compound 322],1 to 10
12,Cc1ccc(Nc2nc(-c3cccnc3)nc3ccc(Cl)cc23)nc1 [Compound 57],1 to 10
13,Cc1ccc2c(c1)CCN2c1nc(-c2cccnc2)nc2ccc(-c3ccc(C#N)cc3)cc12 [Compound 81],1 to 10
14,CNc1nc(-c2cncnc2)nc2cc(-c3cc(F)ccc3F)ccc12 [Compound 155],1 to 10
15,CNc1nc(-c2cccnc2)nc2ccc(-c3cccc(-c4ncco4)c3)cc12 [Compound 250],< 1
16,CC(Nc1nc(-c2cccnc2)nc2ccc(-c3ccc(F)cc3)cc12)c1ccccc1 (stereo not shown) [Compound 605],1 to 10
17,Cn1ccc2cc(-c3ccc4nc(-c5cccnc5)nc(NCc5ccccn5)c4c3)ccc21 [Compound 342],< 1
18,CNc1nc(-c2cccnc2)nc2cc(-c3cc(F)cc(OC)c3)ccc12 [Compound 279],< 1
19,CNc1nc(-c2cccnc2)nc2ccc(-c3c(F)ccc(F)c3F)cc12 [Compound 456],1 to 10
20,CNc1nc(-c2cccnc2)nc2c(OC)cc(-c3ccc(Cl)cc3)cc12 [Compound 307],1 to 10
21,Fc1ccc(-c2ccc3nc(-c4cccnc4)nc(N4CCc5cc(F)ccc54)c3c2)cc1 [Compound 91],1 to 10
22,COc1ccc2c(c1)CCN2c1nc(-c2cccnc2)nc2ccc(Br)cc12 [Compound 21],> 10
23,Fc1cccc(-c2ccc3c(N4CCc5cc(Cl)ccc54)nc(-c4cccnc4)nc3c2)c1F [Compound 108],1 to 10
24,CC(Nc1nc(-c2cccnc2)nc2cc(-c3ccc(F)c(F)c3)ccc12)c1ccccn1 (stereo not shown) [Compound 369],1 to 10
25,CCOc1ccc2nc(-c3ccnnc3)nc(Nc3ccccc3C(N)=O)c2c1 [Compound 71],1 to 10

# — patent publication US20140315886A1, “QUINAZOLINES AS THERAPEUTIC COMPOUNDS AND RELATED METHODS OF USE” (OTSUKA PHARMACEUTICAL CO., LTD., priority 2011, published 2014)
